Assay results: ChEMBL document CHEMBL3217451, “Structure-based optimization of the piperazino-containing 1,3-disubstituted ureas affording sub-nanomolar inhibitors of soluble epoxide hydrolase” (Medchemcomm, 2012)
In brackets after ≈: the same amount, converted by molar mass.

Columns and labels:
[1] = Solubility of the compound in sodium phosphate buffer at pH 7.4 at 25 +/- 1 degC; format: physicochemical
[2] = biological target: T1, Bifunctional epoxide hydrolase 2 (Homo sapiens, UniProt P34913); experiment: Inhibition of human recombinant soluble epoxide hydrolase using cyano(6-methoxy-naphthalen-2-yl)methyl-trans-[(3-phenyloxiran-2-yl)methyl]carbonate as substrate after 5 mins by fluorescence assay
T1 sequence (P34913 whole entry): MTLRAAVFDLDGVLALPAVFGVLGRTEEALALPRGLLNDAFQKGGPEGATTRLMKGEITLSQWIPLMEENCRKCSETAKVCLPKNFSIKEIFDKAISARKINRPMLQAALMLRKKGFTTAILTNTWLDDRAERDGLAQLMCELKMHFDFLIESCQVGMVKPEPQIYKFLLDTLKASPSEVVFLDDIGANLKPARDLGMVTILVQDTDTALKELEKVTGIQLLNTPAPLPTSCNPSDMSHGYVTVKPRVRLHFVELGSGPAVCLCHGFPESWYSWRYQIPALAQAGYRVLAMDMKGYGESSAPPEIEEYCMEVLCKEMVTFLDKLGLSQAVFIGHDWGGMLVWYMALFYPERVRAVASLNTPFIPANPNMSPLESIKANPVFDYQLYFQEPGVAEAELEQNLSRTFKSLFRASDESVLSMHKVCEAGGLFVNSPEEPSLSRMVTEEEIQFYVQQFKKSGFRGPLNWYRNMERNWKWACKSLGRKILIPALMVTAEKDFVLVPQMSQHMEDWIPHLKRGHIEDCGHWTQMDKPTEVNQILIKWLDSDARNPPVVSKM

[3] = biological target: T1, Bifunctional epoxide hydrolase 2; experiment: Inhibition of soluble epoxide hydrolase (unknown origin)

| Structure (SMILES) | solubility [1] [µg/mL] | IC50 [2] [nM] | IC50 [3] [nM] |
| --- | --- | --- | --- |
| O=C(Nc1ccc(C(=O)N2CCNCC2)cc1)NC12CC3CC(CC(C3)C1)C2 | 1960 (≈ 5120 µM) | 67.1 | – |
| O=C(NCC[C@H]1CN[C@@H](Cc2ccccc2)CN1)NC12CC3CC(CC(C3)C1)C2 | – | – | 1370 |
| O=C(Nc1cccc(C(=O)N2CCNCC2)c1)NC12CC3CC(CC(C3)C1)C2 | 1150 (≈ 3010 µM) | 133 | – |
| CC(=O)N1CCN(C(=O)c2cccc(NC(=O)NC34CC5CC(CC(C5)C3)C4)c2)CC1 | 890 (≈ 2100 µM) | 46.3 | – |
| CC(C)(C)OC(=O)N1CCN(C(=O)c2cccc(NC(=O)NC34CC5CC(CC(C5)C3)C4)c2)CC1 | 210 (≈ 435 µM) | 7.3 | – |
| CS(=O)(=O)N1CCN(C(=O)c2cccc(NC(=O)NC34CC5CC(CC(C5)C3)C4)c2)CC1 | 130 (≈ 282 µM) | 41.8 | – |
| CC(=O)N1CCN(C(=O)c2ccc(NC(=O)NC34CC5CC(CC(C5)C3)C4)cc2)CC1 | 530 (≈ 1250 µM) | 9 | – |
| CC(C)(C)OC(=O)N1CCN(C(=O)c2ccc(NC(=O)NC34CC5CC(CC(C5)C3)C4)cc2)CC1 | 500 (≈ 1040 µM) | 0.5 | – |
| CS(=O)(=O)N1CCN(C(=O)c2ccc(NC(=O)NC34CC5CC(CC(C5)C3)C4)cc2)CC1 | 860 (≈ 1870 µM) | 1 | – |
| CC(=O)N1CCN(CCCOc2ccc(NC(=O)NC34CC5CC(CC(C5)C3)C4)c3cccnc23)CC1 | 130 (≈ 257 µM) | 142 | – |
| CC(C)(C)OC(=O)N1CCN(CCCOc2ccc(NC(=O)NC34CC5CC(CC(C5)C3)C4)c3cccnc23)CC1 | 150 (≈ 266 µM) | 6.8 | – |
| O=C(NC1CCN(C(=O)CCC(=O)N2CCNCC2)CC1)NC12CC3CC(CC(C3)C1)C2 | 8000 (≈ 18000 µM) | 77.3 | – |
| CC(=O)N1CCN(C(=O)CCC(=O)N2CCC(NC(=O)NC34CC5CC(CC(C5)C3)C4)CC2)CC1 | – | 44.7 | – |
| CC(C)(C)OC(=O)N1CCN(C(=O)CCC(=O)N2CCC(NC(=O)NC34CC5CC(CC(C5)C3)C4)CC2)CC1 | 470 (≈ 861 µM) | 18.8 | – |
| O=C(NC12CC3CC(CC(C3)C1)C2)N1CCNCC1 | – | 100000 | – |
| CC(=O)N1CCN(C(=O)NC23CC4CC(CC(C4)C2)C3)CC1 | – | 321 | – |
| CC(C)(C)OC(=O)N1CCN(C(=O)NC23CC4CC(CC(C4)C2)C3)CC1 | – | 490 | – |
| CN1CCN(C(=O)NC23CC4CC(CC(C4)C2)C3)CC1 | – | 63.7 | – |
| CC(=O)N1CCN(CCCCOc2cccc(NC(=O)CC34CC5CC(CC(C5)C3)C4)c2)CC1 | 160 (≈ 342 µM) | 0.6 | – |
| CC(C)(C)OC(=O)N1CCN(CCCCOc2cccc(NC(=O)CC34CC5CC(CC(C5)C3)C4)c2)CC1 | 180 (≈ 342 µM) | 0.4 | – |
| CS(=O)(=O)N1CCN(CCCCOc2cccc(NC(=O)CC34CC5CC(CC(C5)C3)C4)c2)CC1 | 170 (≈ 337 µM) | 0.5 | – |
